Consider two molecules from US8778871B2 (Takeda Pharmaceutical Company Limited, priority 2004, dated 2014).

Non-standard residues stand in square brackets, D forms with d. Residues, ends and D or L forms follow the SMILES beside them. *: point of attachment. Propanoyl(3-(3-pyridyl)) = O=C(CCc1cccnc1)*; Arg(Me) = CNC(=N)NCCC[C@H](N)C(=O)O; d4Pal = N[C@H](Cc1ccncc1)C(=O)O; azaGly = NNC(=O)O

The target in experiment [1] is T1, hOT7T175 (Homo sapiens, UniProt Q969F8).
T1 construct: expressed in transfected cells
As to the kind of experiment: Intracellular Ca ion level-increasing activity using FLIPR (180 seconds; specific activity to Metastin (1-54)). Type of experiment: cell-based. Particulars: hOT7T175/CHO, change in intracellular calcium ion level for 180 seconds, Tables 21-23. On the technique in general: Calcium assays in cells follow changes in intracellular calcium, usually with a dye or a luminescent sensor.

Experiment [2] deals with T2, hOT7T175 (Homo sapiens, UniProt Q969F8, L364H).
T2 construct: expressed in transfected cells
Type of experiment: cell-based. Particulars: hOT7T175/CHO, FLIPR, evaluation for 40 seconds after initiation of the reaction.
Procedure: The intracellular Ca ion level-increasing activity was measured using FLIPR as in TEST EXAMPLE 2.

Experiment [3] has as its system human colonic carcinoma-derived cell line SW620. As to the kind of experiment: Tumor growth inhibition activity in tumor-bearing mice. Type of experiment: in vivo, mouse. The conditions noted are these: for tumor growth inhibition (tumor size) compared to the vehicle group: s.c. osmotic pump; for effect of tumor growth inhibition relative to Metastin: in vivo. How it is done: The abscissa denotes the number of days after injection. The bar on the abscissa designates a dosing period. The ordinate denotes a tumor size (mm^3).
On the following day, human colonic carcinoma-derived cell line SW620 (ATCC) was dissolved in 20 mM phosphate buffered saline (pH 7.2)(PBS) containing 200 μL of 0.15M NaCl at a density of 2×10^6 cells. The resulting solution was subcutaneously injected into the left flank of the mice above. The day when the cells were injected was made Day 0. Tumor was measured with an electronic caliper every other or 2 other days during Days 4 to 13 from the cell administration, and tumor size was calculated by the equation: (shorter diameter)^2×longer diameter/2.

The nature of experiment [4]: Induction of ovulation in immature rat using metastin derivatives. Type of experiment: in vivo. Particulars: for progesterone level compared with hCG administration / dose to be administered for induction of ovulation equivalent to hCG / number of oocytes in average per rat: eCG-primed immature female Wistar rats; for dose to be administered for induction of ovulation equivalent to hCG: s.c.; for blood progesterone level: relative to Group A (hCG). Here is the method:
Equine chorionic gonadotropin (eCG, serotropin, Dainippon Pharmaceutical Co., Ltd.) was dissolved in saline (Otsuka Pharmaceutical Co., Ltd.) in a concentration of 100 IU/mL. Using a 1 ml tuberculin syringe and a 26-gauge needle (both by Terumo Co., Ltd.), eCG was subcutaneously injected into the dorsal area of female Wistar rats of 23 days old after birth (Charles River Japan, Inc.) in a dose of 10 IU/animal, during 9:00 to 10:00 AM. Following the eCG injection, the animal was grouped after 47 to 48 hours as shown below, to which groups, each drug was injected.
Group B (5 rats): Compound No. 305 was dissolved in saline at 33.3 nmol/mL and the solution was subcutaneously injected into the back in a dose of 6.7 nmol/animal.
Group C (5 rats): Compound No. 305 was dissolved in saline at […] and the solution was subcutaneously injected into the back in a dose of 2.0 nmol/animal.
Group D (5 rats): Compound No. 322 was dissolved in saline at 33.3 nmol/mL and the solution was subcutaneously injected into the back in a dose of 6.7 nmol/animal.
Group E (5 rats): Compound No. 322 was dissolved in saline at 10.0 nmol/mL and the solution was subcutaneously injected into the back in a dose of 2.0 nmol/animal.
Group F (6 rats): Saline was subcutaneously injected into the back in a dose of 200 μL/animal.
After administration of these drugs, the animal was sacrificed by decapitation after 24 to 25 hours to recover blood, bilateral oviducts and uterus. In collecting blood, 90 μl of 10 KIU/mL aprotinin solution (Trasylol, Bayer) containing 3 mg/ml EDTA had been previously filled in a tube for recovery to prevent blood clotting. After blood recovery, the blood was thoroughly blended and the mixture was centrifuged at 2,000 G for 25 minutes. After the supernatant was recovered, the product was used as a plasma sample.
The number of oocytes was counted by referring to the method described in Eur. J. Endocrinol., 138, 594-600 (1998).
Where retention of oocytes in the oviducal ampulla was confirmed by stereomicroscopic observation of the oviduct, the ampulla was punctured with a 27-gauge needle for syringe (Terumo) to retrieve the oocytes. After granulosa cells surrounding the oocytes were removed by trypsin treatment, the number of oocytes was counted. Where retention of oocytes in the oviducal ampulla was not confirmed by stereomicroscopic observation of the oviduct, a with 27-gauge needle with the polished tip for syringe was inserted into the tubal ostium and more than 400 μL of saline was flushed into the oviduct and uterine for rinsing. Then, the presence or absence of oocytes in the effluent was observed.
The blood estradiol level was measured by radioimmunoassay (DPC.Estradiol Kit, Iatron, Inc.).
The blood progesterone level was measured by radioimmunoassay (DPC.Progesterone, Iatron, Inc.).

Setting [5] is: SW620 tumor-bearing BALB/cAnN-nu mice, 1 mM, 24 mol/day/mouse×14 days (24 nmol for Compound No. 305).
Where [6] appears, read: SW620 tumor-bearing mice, 0.1 mM, 1/10 dose of Metastin, 2.4 mol (nmol)/day/mouse×14 days.
[7] abbreviates: s.c. 2.0 nmol/animal (Groups C, E).
Setting [8] is: s.c. 6.7 nmol/animal (Groups B, D).

T2 sequence (Q969F8 whole entry L364H): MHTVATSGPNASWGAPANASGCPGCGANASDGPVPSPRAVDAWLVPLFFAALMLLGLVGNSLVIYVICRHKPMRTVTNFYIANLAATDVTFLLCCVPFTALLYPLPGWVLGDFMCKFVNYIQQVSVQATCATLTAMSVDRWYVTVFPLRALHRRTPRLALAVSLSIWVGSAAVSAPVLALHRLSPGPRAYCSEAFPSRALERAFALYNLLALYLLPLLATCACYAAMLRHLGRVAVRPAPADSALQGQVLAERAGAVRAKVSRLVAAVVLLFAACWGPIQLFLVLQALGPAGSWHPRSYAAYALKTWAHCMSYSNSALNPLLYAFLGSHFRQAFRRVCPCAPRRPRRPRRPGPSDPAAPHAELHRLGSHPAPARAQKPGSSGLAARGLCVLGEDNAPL
T1 sequence (Q969F8 whole entry L364H): as above

As for `CNC(=N)NCCC[C@H](NC(=O)[C@H](CC(C)C)NC(=O)NNC(=O)[C@H](Cc1ccccc1)NC(=O)[C@H](CO)NC(=O)[C@H](CC(N)=O)NC(=O)[C@@H](Cc1ccncc1)NC(=O)[C@H](N)Cc1ccc(O)cc1)C(=O)N[C@@H](Cc1ccccc1)C(N)=O` [Compound No. 305, D-Tyr-D-Pya(4)-Asn-Ser-Phe-AzaGly-Leu-Arg(Me)-Phe-NH2] (H-[dY][d4Pal]NSF[azaGly]L[Arg(Me)]F-NH2), on hOT7T175 [1], the “intracellular Ca ion level-increasing activity [specific activity to Metastin (1-54)]” value is reported as 5. Also, on hOT7T175 [2], the “Specific Act. (EC50/MS10 EC50)” value is 2.0. Also, the “tumor growth inhibition (tumor size) compared to the vehicle group” value in experiment [3] (setting [5]) is “significant effect of tumor growth inhibition from Days 5 to 9 and on Day 11”. In experiment [3] (SW620 tumor-bearing mice), the “effect of tumor growth inhibition relative to Metastin” value is reported as 10 times. Also, the “tumor growth inhibition (tumor size) compared to the vehicle group” value in experiment [3] (setting [6]) was “significant tumor growth inhibition activity from Days 5 to 11”. Further, in experiment [4], the “progesterone level compared with hCG administration” value is listed as “lower than in the hCG administration” and the “dose to be administered for induction of ovulation equivalent to hCG” value was “at least 2.0 mmol/animal”. In experiment [4] (setting [7]), the “number of oocytes in average per rat” value was determined as 29.4 oocytes; the blood estradiol level result was “no difference was found among Groups A, B, C and D”; the blood progesterone level result was “less than a half of the level in Group A”. In experiment [4] (setting [8]), the “number of oocytes in average per rat” value is on record as 32.6 oocytes; the blood estradiol level entry was “no difference was found among Groups A, B, C and D”; the blood progesterone level result was “less than a half of the level in Group A”.

Take `CNC(=N)NCCC[C@H](NC(=O)[C@H](CC(C)C)NC(=O)NNC(=O)[C@H](Cc1ccccc1)NC(=O)[C@H](CO)NC(=O)[C@H](CC(N)=O)NC(=O)CCc1cccnc1)C(=O)N[C@@H](Cc1ccccc1)C(N)=O` [Compound No. 322, 3-(3-Pyridyl)propionyl-Asn-Ser-Phe-AzaGly-Leu-Arg(Me)-Phe-NH2] ({Propanoyl(3-(3-pyridyl))}-NSF[azaGly]L[Arg(Me)]F-NH2): the “intracellular Ca ion level-increasing activity [specific activity to Metastin (1-54)]” value on hOT7T175 [1] amounted to 1. Besides, the “Specific Act. (EC50/MS10 EC50)” value at hOT7T175 [2] is given as 5.4. Besides, the “tumor growth inhibition (tumor size) compared to the vehicle group” value in experiment [3] (setting [5]) is reported as “significant tumor growth inhibition activity from Days 6 to 11”. Moreover, the “effect of tumor growth inhibition relative to Metastin” value in experiment [3] (SW620 tumor-bearing mice) amounted to 10 times. Further, in experiment [3] (setting [6]), the “tumor growth inhibition (tumor size) compared to the vehicle group” value is “significant tumor growth inhibition activity in a 1/10 dose (2.4 mol/day/mouse×14 days) of Metastin from Days 6 to 8”. Further, in experiment [3] (SW620 tumor-bearing mice, same dose as Metastin, 24 mol/day/mouse×14 days), the “tumor growth inhibition (tumor size) compared with the Metastin group” value was “on Day 11, showed a significant tumor growth inhibition activity even when compared with the Metastin group”. For the same molecule, the rats ovulated in experiment [4] (Group E, s.c. 2.0 mmol (so in the source) per animal) is 3 out of 5. Also, in experiment [4], the “progesterone level compared with hCG administration” value is “lower than in the hCG administration” and the “dose to be administered for induction of ovulation equivalent to hCG” value is “at least 6.7 mmol/animal”. In experiment [4] (setting [7]), the “number of oocytes in average per rat” value stood at 11.6 oocytes, the blood estradiol level result is given as “tendency to show a higher level in rats with no ovulation induction” and the blood progesterone level entry was “very low level”. For the same molecule, in experiment [4] (setting [8]), the “number of oocytes in average per rat” value came out at 29.6 oocytes; the blood estradiol level result is “no difference was found among Groups A, B, C and D”; the blood progesterone level result is reported as “less than a half of the level in Group A”.
